The source of these data is patent US11174253B2, “Compound and pharmaceutical composition containing the same” (ALPHALA CO., LTD., priority 2017, dated 2021).

Holding throughout (type): cell-based
In experiment [1] the test system is NCI-H460 human lung cancer cell line. The experiment is described as follows: MTS cell viability assay (NCI-60 methodology), GI50/LC50, NCI-H460. Particulars: 48 h, NCI-H460 cells, 2 days incubation with compound. Here is the method: (§1) The number of treated cells was determined by GE InCell 2200 system, and treated cells were stained with Hoechst 33342 which can reveal the remained nucleus in culture plate. The proportion of survival cells then were calculated with the ratio of treated/non-treated cells. The growth inhibition/cytotoxic effect of selected compounds were evaluated by the following protocol of NCI-60 screening platform. The human tumor cell lines are plating on a 96 well plate in a fixed density 24 hr prior compound treatment. Compounds with multiple concentrations are then added into each well for further 48 hr incubation. Cell viability is assessed by MTS method and the potency of compound is represented by GI50 and LC50 calculated by MTS result.
(§2) The cell viability measurement is based on the NCI-60 screening methodology (Nat. Rev. Cancer 6, 813-823, 2006). Briefly, cells are inoculated into 96-well plates at the optimal plating density. After 24 h, one of the two plates for each cell line is processed to determine a time zero cell viability (Tz) by MTS assay (Promega). Compounds are added over a 2-fold serial dilution to provide a total five drug concentrations plus DMSO control. Plates are incubated for a further 2 days, then measured cell viability by MTS assay [control growth (C) and test growth in the presence of drug at the five concentration levels (Ti)]. Growth inhibition of 50% (GI50) is calculated from [(Ti−Tz)/(C−Tz)]×100=50, which is the drug concentration resulting in a 50% reduction of control cells during the drug incubation. The LC50 is calculated from [(Ti−Tz)/Tz]×100=−50, which is the drug concentration resulting in a 50% reduction at the end of the drug treatment as compared to that at the beginning.
(§3) Herein, Hep3B refers to hepatocellular carcinoma cell line, SW480 refers to colon adenocarcinoma cell line, and NCI-H460 refers to human lung cancer cell line.
(In general: Tetrazolium dyes change colour on reduction, which living cells bring about.)

Experiment [2] deals with SW480 colon adenocarcinoma cell line. The experiment can be described thus: MTS cell viability assay (NCI-60 methodology), GI50/LC50, SW480. The note with it: Homo sapiens, 48 h, SW480 cells, 2 days incubation with compound. As to the method:
as §1, §2, §3

In experiment [3] the test system is hepatocellular carcinoma cell line Hep3B. The experiment is described as follows: Growth inhibition of Hep3B cells, 48 hr treatment, Hoechst 33342 nucleus count (GE InCell 2200). The note with it: Homo sapiens. The procedure, abridged:
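Compound exposure lasted 48 hr at 37° C, 5% CO2. Surviving nuclei were counted after Hoechst 33342 staining, and survival was expressed as the treated/non-treated cell number ratio, including the ratio at 10 μM compound.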

For experiment [4], the system named is Hep3B hepatocellular carcinoma cell line. The experiment is described as follows: MTS cell viability assay (NCI-60 methodology), GI50/LC50, Hep3B. The note with it: Homo sapiens, 48 h, Hep3B cells, 2 days incubation with compound. As to the method:
as §1, §2, §3

Where [5] appears, read: Table 5, ratio of number of tumor cells treated with 10 μM compound to non-treated cells.
Where [6] appears, read: Table 1, ratio of number of tumor cells treated with 10 μM compound to non-treated cells.

Molecules are shown by their SMILES.

For the molecule `CCCCCOc1ccc(-c2nc(NC(=O)c3ccc([N+](=O)[O-])s3)sc2Oc2ccccc2)cc1` [Compound 5-76, 5-nitro-N-(4-(4-(pentyloxy)phenyl)-5-phenoxythiazol-2-yl)thiophene-2-carboxamide], in experiment [1], the GI50 (commonly the concentration giving 50% growth inhibition) was determined as 740 nM and the LC50 (concentration giving 50% net cell loss versus time zero, NCI-60 definition) came out at 1520 nM. Besides, in experiment [2], the GI50 is 1270 nM and the LC50 (NCI-60 lethal concentration, 50% net cell loss vs time zero) was found to be 5820 nM. For the same molecule, the viability (commonly a per cent measure of how many cells are alive, often set against a control) at 10 µM in experiment [3] (setting [5]) worked out at 38%. Besides, in experiment [4], the GI50 was 560 nM and the median lethal concentration (LC50) (in general, the concentration lethal to half of the exposed cells or organisms) stood at 1720 nM.
`CCCOc1ccccc1-c1nnc(NC(=O)Cc2ccc3nc(N)sc3c2)s1` [Compound 1-10, 2-(2-aminobenzo[d]thiazol-6-yl)-N-(5-(2-propoxyphenyl)-1,3,4-thiadiazol-2-yl)acetamide]: in experiment [2], the GI50 worked out at 900 nM and the LC50 (NCI-60 lethal concentration, 50% net cell loss vs time zero) was 5170 nM. The viability at 10 µM in experiment [3] (setting [6]) worked out at 61%. Moreover, in experiment [4], the GI50 was found to be 170 nM and the LC50 turned out to be 550 nM.
Consider `CCC(CC)Oc1ccc(-c2nnc(NC(=O)Cc3ccc4nc(N)sc4c3)s2)cc1` [Compound 1-16, 2-(2-aminobenzo[d]thiazol-6-yl)-N-(5-(4-(pentan-3-yloxy)phenyl)-1,3,4-thiadiazol-2-yl)acetamide], for which the GI50 in experiment [2] came to 7260 nM. For the same molecule, the viability at 10 µM in experiment [3] (setting [6]) came to 84%. Further, in experiment [4], the GI50 is 2830 nM and the LC50 stood at 4340 nM.
Regarding `CCOc1ccc(-c2nnc(NC(=O)Cc3ccc4nc(N)sc4c3)s2)c(OCCN(C)C)c1` [Compound 1-29, 2-(2-aminobenzo[d]thiazol-6-yl)-N-(5-(2-(2-(dimethylamino)ethoxy)-4-ethoxyphenyl)-1,3,4-thiadiazol-2-yl)acetamide], the GI50 in experiment [1] was determined as 5200 nM; in experiment [2] it was 3340 nM; in experiment [4], 200 nM. Further, the LC50 in experiment [4] is 1100 nM.
For `CCCCOc1ccccc1-c1nnc(NC(=O)Cc2ccc3nc(N)sc3c2)s1` [Compound 1-20, 2-(2-aminobenzo[d]thiazol-6-yl)-N-(5-(2-butoxyphenyl)-1,3,4-thiadiazol-2-yl)acetamide], the 50% growth inhibitory concentration (GI50) in experiment [2] came out at 1150 nM. The viability at 10 µM in experiment [3] (setting [6]) is 81%. Besides, in experiment [4], the GI50 amounted to 210 nM and the LC50 was 630 nM.
Turning to `CCCOc1ccc(-c2nc(NC(=O)c3ccc([N+](=O)[O-])s3)sc2Oc2ccc(OC(F)(F)F)cc2)cc1` [Compound 5-8, 5-nitro-N-(4-(4-propoxyphenyl)-5-(4-(trifluoromethoxy)phenoxy)thiazol-2-yl)thiophene-2-carboxamide], in experiment [1], the GI50 is 3010 nM and the LC50 (concentration giving 50% net cell loss versus time zero, NCI-60 definition) came out at 4660 nM. Further, the viability at 10 µM in experiment [3] (setting [5]) was found to be 24%. The GI50 in experiment [4] stood at 3430 nM.
`Nc1nc2ccc(CC(=O)Nc3nnc(-c4ccc(Br)cc4)s3)cc2s1` [Compound 1-7, 2-(2-aminobenzo[d]thiazol-6-yl)-N-(5-(4-bromophenyl)-1,3,4-thiadiazol-2-yl)acetamide]: in experiment [2], the 50% growth inhibitory concentration (GI50) turned out to be 7700 nM. For the same molecule, in experiment [4], the 50% growth inhibitory concentration (GI50) was determined as 3170 nM and the LC50 amounted to 9400 nM.
As to `CCOc1cc(OCC)c(-c2nnc(NC(=O)Cc3ccc4nc(N)sc4c3)s2)cn1` [Compound 1-35, 2-(2-aminobenzo[d]thiazol-6-yl)-N-(5-(4,6-diethoxypyridin-3-yl)-1,3,4-thiadiazol-2-yl)acetamide], the GI50 in experiment [1] turned out to be 1420 nM. Also, in experiment [3] (setting [6]), the viability at 10 µM was determined as 42%. Moreover, in experiment [4], the GI50 came out at 550 nM and the LC50 was determined as 3680 nM.
Take `CCCOc1ccc(-c2nnc(NC(=O)Cc3ccc4nc(N)sc4c3)s2)cc1` [Compound 1-17, 2-(2-aminobenzo[d]thiazol-6-yl)-N-(5-(4-propoxyphenyl)-1,3,4-thiadiazol-2-yl)acetamide]: the GI50 in experiment [2] came out at 1810 nM. The viability at 10 µM in experiment [3] (setting [6]) worked out at 82%. Also, in experiment [4], the GI50 came out at 600 nM and the 50% lethal concentration (LC50) is 890 nM.
Consider `Cc1ccc(-c2nc(NC(=O)Cc3ccc4nc(N)sc4c3)sc2-c2ccc(F)cc2)cc1` [Compound 3-4, 2-(2-aminobenzo[d]thiazol-6-yl)-N-(5-(4-fluorophenyl)-4-(p-tolyl)thiazol-2-yl)acetamide], for which the GI50 in experiment [1] is 3020 nM; in experiment [4], 2070 nM.
For `Cc1ccc(-c2nc(NC(=O)c3ccc([N+](=O)[O-])s3)sc2-c2ccc(Br)cc2)cc1` [Compound 6-2, N-(5-(4-bromophenyl)-4-(p-tolyl)thiazol-2-yl)-5-nitrothiophene-2-carboxamide], in experiment [2], the GI50 came out at 970 nM and the LC50 (NCI-60 lethal concentration, 50% net cell loss vs time zero) was found to be 2720 nM. In experiment [4], the concentration for 50% growth inhibition (GI50) was 1270 nM and the median lethal concentration (LC50) is 1940 nM.
Take `CCCOc1ccc(-c2nc(NC(=O)c3ccc([N+](=O)[O-])s3)sc2Oc2ccccc2)cc1` [Compound 5-9, 5-nitro-N-(5-phenoxy-4-(4-propoxyphenyl)thiazol-2-yl)thiophene-2-carboxamide]: the GI50 amounted to 1110 nM in experiment [1] and 2430 nM in experiment [4]. In addition, the LC50 (concentration giving 50% net cell loss versus time zero, NCI-60 definition) in experiment [1] is 2860 nM. The viability at 10 µM in experiment [3] (setting [5]) was found to be 32%.
For the molecule `O=C(Nc1nc(-c2ccc(Br)cc2)c(Oc2ccc(OC(F)(F)F)cc2)s1)c1ccc([N+](=O)[O-])s1` [Compound 5-18, N-(4-(4-bromophenyl)-5-(4-(trifluoromethoxy)phenoxy)thiazol-2-yl)-5-nitrothiophene-2-carboxamide], the GI50 in experiment [1] was 6400 nM; in experiment [2], 2520 nM; in experiment [4], 3090 nM. In addition, in experiment [2], the LC50 (NCI-60 lethal concentration, 50% net cell loss vs time zero) amounted to 4750 nM. The LC50 in experiment [4] is 4770 nM.
Regarding `CCOc1ccc(-c2nc(NC(=O)Cc3ccc4nc(N)sc4c3)sc2-c2ccc(F)cc2)cc1` [Compound 3-9, 2-(2-aminobenzo[d]thiazol-6-yl)-N-(4-(4-ethoxyphenyl)-5-(4-fluorophenyl)thiazol-2-yl)acetamide], the values for the concentration for 50% growth inhibition (GI50) in experiment [1], in experiment [2] and in experiment [4] were 2390 nM, 8950 nM and 2270 nM, respectively.
With `CCOc1ccc(-c2nnc(NC(=O)Cc3ccc4nc(N)sc4c3)s2)c(OCCOC)c1` [Compound 1-32, 2-(2-aminobenzo[d]thiazol-6-yl)-N-(5-(4-ethoxy-2-(2-methoxyethoxy)phenyl)-1,3,4-thiadiazol-2-yl)acetamide], in experiment [1], the GI50 stood at 140 nM and the LC50 (concentration giving 50% net cell loss versus time zero, NCI-60 definition) was determined as 600 nM. In experiment [2], the GI50 stood at 230 nM and the LC50 (NCI-60 lethal concentration, 50% net cell loss vs time zero) was 690 nM. Besides, in experiment [4], the GI50 worked out at 170 nM and the LC50 was 540 nM.
As for `CC(C)Oc1ccc(-c2nc(NC(=O)c3ccc([N+](=O)[O-])s3)sc2Oc2ccccc2)cc1` [Compound 5-10, N-(4-(4-isopropoxyphenyl)-5-phenoxythiazol-2-yl)-5-nitrothiophene-2-carboxamide], in experiment [1], the GI50 was determined as 880 nM and the LC50 (concentration giving 50% net cell loss versus time zero, NCI-60 definition) stood at 5310 nM. In addition, in experiment [3] (setting [5]), the viability at 10 µM worked out at 29%. Also, the GI50 in experiment [4] was 2530 nM.
Regarding `CC(C)Oc1ccccc1-c1nnc(NC(=O)Cc2ccc3nc(N)sc3c2)s1` [Compound 1-15, 2-(2-aminobenzo[d]thiazol-6-yl)-N-(5-(2-isopropoxyphenyl)-1,3,4-thiadiazol-2-yl)acetamide], the GI50 in experiment [2] is 620 nM. In addition, the viability at 10 µM in experiment [3] (setting [6]) is 56%. For the same molecule, in experiment [4], the GI50 is 170 nM and the LC50 worked out at 500 nM.
Turning to `Cc1ccc(-c2nc(NC(=O)Cc3ccc4nc(N)sc4c3)sc2-c2ccc(Br)cc2)cc1` [Compound 3-3, 2-(2-aminobenzo[d]thiazol-6-yl)-N-(5-(4-bromophenyl)-4-(p-tolyl)thiazol-2-yl)acetamide], the figures for the GI50 in experiment [2] and in experiment [4] were 7970 nM and 1140 nM, respectively. Also, the viability at 10 µM in experiment [3] (Table 3, ratio of number of tumor cells treated with 10 μM compound to non-treated cells) came out at 71%.
For `CCCCOc1ccc(-c2nc(NC(=O)c3ccc([N+](=O)[O-])s3)sc2Oc2ccccc2F)cc1` [Compound 5-72, N-(4-(4-butoxyphenyl)-5-(2-fluorophenoxy)thiazol-2-yl)-5-nitrothiophene-2-carboxamide], in experiment [3] (setting [5]), the viability at 10 µM was found to be 43%.
On to `CCOc1ccc(-c2nc(NC(=O)c3ccc([N+](=O)[O-])s3)sc2C(=O)Nc2cc(F)cc(F)c2)cc1` [Compound 6-27, N-(3,5-difluorophenyl)-4-(4-ethoxyphenyl)-2-(5-nitrothiophene-2-carboxamido)thiazole-5-carboxamide], for which the viability at 10 µM in experiment [3] (Table 6, ratio of number of tumor cells treated with 10 μM compound to non-treated cells) stood at 36%.
